Converted amounts (≈) assume the structure as drawn. Where two headings read alike, the source gives them in different places. Blank lines part the entries; values can stand above or below the molecule they belong to.
Legend:
[1] = tested on: Clostridium difficile (CD) strains; assay: microbe, parasite or virus in culture; type: cell-based
Escherichia coli strains = assay: MIC by microdilution in Mueller-Hinton broth against Escherichia coli strains; type: cell-based; conditions: for MIC: Escherichia coli, Mueller-Hinton broth, read-out: MIC
Enterococcus faecalis = assay: MIC by microdilution in Mueller-Hinton broth against Enterococcus faecalis strains; type: cell-based; conditions: Enterococcus faecalis
Enterococci faecium = assay: MIC by microdilution in Mueller-Hinton broth against Enterococci faecium strains; type: cell-based, Enterococcus faecium; conditions: Enterococcus faecium, Mueller-Hinton broth, read-out: MIC
[2] = tested on: Staphylococcus aureus strains; assay: MIC by microdilution in Mueller-Hinton broth against Staphylococcus aureus strains; type: cell-based; conditions: Staphylococcus aureus
Bacteroides Strains = assay: MIC by microdilution in Brucella broth against Bacteroides strains; type: cell-based, Bacteroides spp.
[3] = E. faecalis NR 31884, read-out: MIC
[4] = E. faecalis NR 31885, read-out: MIC
[5] = E. faecalis NR 31886, read-out: MIC
[6] = E. faecalis NR 31887, read-out: MIC
[7] = E. faecalis NR 31888, read-out: MIC
[8] = S. aureus NR 10129, read-out: MIC
[9] = S. aureus NR 10186, read-out: MIC
[10] = S. aureus NR 10187, read-out: MIC
[11] = S. aureus NR 10188, read-out: MIC
[12] = S. aureus NR 10189, read-out: MIC
[13] = S. aureus NR 10191, read-out: MIC
[14] = S. aureus NR 10192, read-out: MIC
[15] = S. aureus NR 10193, read-out: MIC
[16] = S. aureus NR 10194, read-out: MIC
[17] = S. aureus NR 10198, read-out: MIC

Structure (SMILES): O=C1C(NC2CCCCCCC2)=CC(=O)c2ncccc21 [AZQ, 6-(cyclooctylamino)-5,8-quinolinequinone]
MIC Range [1]: 0.25 to 1 µg/mL
MIC90 ([1]; Clostridioides difficile): 1 µg/mL (≈ 3.52 µM)
activity against E. coli (in words) (Escherichia coli strains): no activity
MIC (Escherichia coli strains; E. coli NR 6): > 32 µg/mL
MIC (Escherichia coli strains; E. coli NR 8): > 32 µg/mL
MIC (Escherichia coli strains; E. coli NR 96): > 32 µg/mL
MIC (Escherichia coli strains; E. coli NR 104): > 32 µg/mL
MIC (Escherichia coli strains; E. coli NR 17626): > 32 µg/mL
MIC (Escherichia coli strains; E. coli NR 17627): > 32 µg/mL
MIC (Escherichia coli strains; E. coli NR 17633): > 32 µg/mL
MIC (Escherichia coli strains; E. coli NR 17647): > 32 µg/mL
MIC (Escherichia coli strains; E. coli NR 17650): > 32 µg/mL
MIC (Escherichia coli strains; E. coli NR 17661): > 32 µg/mL
MIC (Enterococcus faecalis; [3]): 32 µg/mL (≈ 113 µM)
MIC (Enterococcus faecalis; [4]): 32 µg/mL (≈ 113 µM)
MIC (Enterococcus faecalis; [5]): 32 µg/mL (≈ 113 µM)
MIC (Enterococcus faecalis; [6]): 16 µg/mL (≈ 56.3 µM)
MIC (Enterococcus faecalis; [7]): 32 µg/mL (≈ 113 µM)
MIC (Enterococci faecium; E. faecium NR 31903): > 32 µg/mL
MIC (Enterococci faecium; E. faecium NR 31909): 32 µg/mL (≈ 113 µM)
MIC (Enterococci faecium; E. faecium NR 31912): 32 µg/mL (≈ 113 µM)
MIC (Enterococci faecium; E. faecium NR 31915): > 32 µg/mL
MIC (Enterococci faecium; E. faecium NR 31916): 16 µg/mL (≈ 56.3 µM)
MIC [2, 8]: 32 µg/mL (≈ 113 µM)
MIC [2, 9]: 16 µg/mL (≈ 56.3 µM)
MIC [2, 10]: > 32 µg/mL
MIC [2, 11]: 32 µg/mL (≈ 113 µM)
MIC [2, 12]: 16 µg/mL (≈ 56.3 µM)
MIC [2, 13]: 8 µg/mL (≈ 28.1 µM)
MIC [2, 14]: 32 µg/mL (≈ 113 µM)
MIC [2, 15]: 16 µg/mL (≈ 56.3 µM)
MIC [2, 16]: 16 µg/mL (≈ 56.3 µM)
MIC [2, 17]: 16 µg/mL (≈ 56.3 µM)
MIC (Bacteroides Strains; B. caccae HM728, read-out: MIC): 2 µg/mL (≈ 7.03 µM)
MIC (Bacteroides Strains; B. eggerthii HM210, read-out: MIC): 2 µg/mL (≈ 7.03 µM)
MIC (Bacteroides Strains; B. fragilis HM709, read-out: MIC): 2 µg/mL (≈ 7.03 µM)
MIC (Bacteroides Strains; B. fragilis HM710, read-out: MIC): 2 µg/mL (≈ 7.03 µM)
MIC (Bacteroides Strains; B. fragilis HM714, read-out: MIC): 2 µg/mL (≈ 7.03 µM)
MIC (Bacteroides Strains; B. ovatus HM222, read-out: MIC): 1 µg/mL (≈ 3.52 µM)
MIC (Bacteroides Strains; B. stercoris HM1036, read-out: MIC): 2 µg/mL (≈ 7.03 µM)
MIC (Bacteroides Strains; Bacteroides, B. spp. HM19): 4 µg/mL (≈ 14.1 µM)
MIC (Bacteroides Strains; Bacteroides, B. spp. HM23, read-out: MIC): 2 µg/mL (≈ 7.03 µM)
MIC (Bacteroides Strains; Bacteroides, B. spp. HM27): 1 µg/mL (≈ 3.52 µM)
MIC (Bacteroides Strains; Bacteroides, B. spp. HM58): 4 µg/mL (≈ 14.1 µM)

MIC (Escherichia coli strains; E. coli NR 6): 2 µg/mL (≈ 5.72 µM)
MIC (Escherichia coli strains; E. coli NR 8): 4 µg/mL (≈ 11.4 µM)
MIC (Escherichia coli strains; E. coli NR 96): 4 µg/mL (≈ 11.4 µM)
MIC (Escherichia coli strains; E. coli NR 104): 4 µg/mL (≈ 11.4 µM)
MIC (Escherichia coli strains; E. coli NR 17626): 4 µg/mL (≈ 11.4 µM)
MIC (Escherichia coli strains; E. coli NR 17627): 4 µg/mL (≈ 11.4 µM)
MIC (Escherichia coli strains; E. coli NR 17633): 4 µg/mL (≈ 11.4 µM)
MIC (Escherichia coli strains; E. coli NR 17647): 4 µg/mL (≈ 11.4 µM)
MIC (Escherichia coli strains; E. coli NR 17650): 4 µg/mL (≈ 11.4 µM)
MIC (Escherichia coli strains; E. coli NR 17661): > 32 µg/mL
MIC (Escherichia coli strains; Escherichia coli strain NR 6): 2 µg/mL (≈ 5.72 µM)
MIC (Escherichia coli strains; Escherichia coli strain NR 8): 4 µg/mL (≈ 11.4 µM)
MIC (Escherichia coli strains; Escherichia coli strain NR 96): 4 µg/mL (≈ 11.4 µM)
MIC (Escherichia coli strains; Escherichia coli strain NR 104): 4 µg/mL (≈ 11.4 µM)
MIC (Escherichia coli strains; Escherichia coli strain NR 17626): 4 µg/mL (≈ 11.4 µM)
MIC (Escherichia coli strains; Escherichia coli strain NR 17627): 4 µg/mL (≈ 11.4 µM)
MIC (Escherichia coli strains; Escherichia coli strain NR 17633): 4 µg/mL (≈ 11.4 µM)
MIC (Escherichia coli strains; Escherichia coli strain NR 17647): 4 µg/mL (≈ 11.4 µM)
MIC (Escherichia coli strains; Escherichia coli strain NR 17650): 4 µg/mL (≈ 11.4 µM)
MIC (Escherichia coli strains; Escherichia coli strain NR 17661): > 32 µg/mL
MIC (Enterococcus faecalis; [3]): 4 µg/mL (≈ 11.4 µM)
MIC (Enterococcus faecalis; [4]): 4 µg/mL (≈ 11.4 µM)
MIC (Enterococcus faecalis; [5]): 4 µg/mL (≈ 11.4 µM)
MIC (Enterococcus faecalis; [6]): 0.5 µg/mL (≈ 1.43 µM)
MIC (Enterococcus faecalis; [7]): 4 µg/mL (≈ 11.4 µM)
MIC (Enterococci faecium; E. faecium NR 31903): > 32 µg/mL
MIC (Enterococci faecium; E. faecium NR 31909): > 32 µg/mL
MIC (Enterococci faecium; E. faecium NR 31912): > 32 µg/mL
MIC (Enterococci faecium; E. faecium NR 31915): 2 µg/mL (≈ 5.72 µM)
MIC (Enterococci faecium; E. faecium NR 31916): > 32 µg/mL
MIC [2, 8]: > 32 µg/mL
MIC [2, 9]: > 32 µg/mL
MIC [2, 10]: 8 µg/mL (≈ 22.9 µM)
MIC [2, 11]: 16 µg/mL (≈ 45.8 µM)
MIC [2, 12]: 32 µg/mL (≈ 91.6 µM)
MIC [2, 13]: > 32 µg/mL
MIC [2, 14]: 32 µg/mL (≈ 91.6 µM)
MIC [2, 15]: > 32 µg/mL
MIC [2, 16]: 2 µg/mL (≈ 5.72 µM)
MIC [2, 17]: > 32 µg/mL
MIC ([2]; Staphylococcus aureus strain NR 10129, read-out: MIC): > 32 µg/mL
MIC ([2]; Staphylococcus aureus strain NR 10186, read-out: MIC): > 32 µg/mL
MIC ([2]; Staphylococcus aureus strain NR 10187, read-out: MIC): 8 µg/mL (≈ 22.9 µM)
MIC ([2]; Staphylococcus aureus strain NR 10188, read-out: MIC): 16 µg/mL (≈ 45.8 µM)
MIC ([2]; Staphylococcus aureus strain NR 10189, read-out: MIC): 32 µg/mL (≈ 91.6 µM)
MIC ([2]; Staphylococcus aureus strain NR 10191, read-out: MIC): > 32 µg/mL
MIC ([2]; Staphylococcus aureus strain NR 10192, read-out: MIC): 32 µg/mL (≈ 91.6 µM)
MIC ([2]; Staphylococcus aureus strain NR 10193, read-out: MIC): > 32 µg/mL
MIC ([2]; Staphylococcus aureus strain NR 10194, read-out: MIC): 2 µg/mL (≈ 5.72 µM)
MIC ([2]; Staphylococcus aureus strain NR 10198, read-out: MIC): > 32 µg/mL
Structure (SMILES): CC1(C)S[C@@H]2[C@H](NC(=O)[C@H](N)c3ccccc3)C(=O)N2[C@H]1C(=O)O [AMP, ampicillin]
